Measured values reported in EP2769738B1, “Conjugated TLR7 and/or TLR8 and TLR2 polycationic agonists” (Invivogen, priority 2013, dated 2014).

Legend:
human TLR2 = target: T1, human TLR2 (Homo sapiens, UniProt O60603); assay: HEK-Blue hTLR2 NF-κB/AP-1-inducible SEAP reporter cell assay; type: cell-based; conditions: Figure 3; 10 µg/mL to 10 pg/ml, 24 hours, SEAP read as OD at 655 nm
T1 construct: host or cells: HEK293 (ATCC, CRL-1573), HEK-Blue hTLR2
Source text: (§1) Assays for detecting TLR7, TLR8 or TLR2 activity are known in the art and include for example cell-based assays using respectively TLR7, TLR8 or TLR2 reporter cell lines (InvivoGen). The reporter cell lines are engineered HEK293 cells, a human embryonic kidney cell line (ATCC, CRL-1573) that stably express either murine TLR7 (HEK-Blue™ mTLR7) or human TLR7 (HEK-Blue™ hTLR7), human TLR8 (HEK-Blue™ hTLR8) or human TLR2 (HEK- Blue™ hTLR2) with an NF-κB-inducible secreted embryonic alkaline phosphatase (SEAP) as the reporter gene.
(§2) Cell-based assays were carried out using TLR7 and TLR2 reporter cell lines (InvivoGen). The reporter cell lines are engineered HEK293 cells, a human embryonic kidney cell line (ATCC, CRL-1573) that stably express either murine TLR7 (HEK-Blue™ mTLR7) or human TLR7 (HEK-Blue™ hTLR7) or human TLR2 (HEK- Blue™ hTLR2) with an NF-κB-inducible secreted embryonic alkaline phosphatase (SEAP) as the reporter gene. The SEAP reporter gene is under the control of the NF-κB and AP-1-inducible promoter, which, upon treatment with a corresponding TLR ligand and activation of NF-κB and AP-1, induces the production of SEAP. Detection of SEAP is measured following culturing cells in HEK-Blue™ Detection media (InvivoGen). HEK-Blue™ Detection contains a SEAP substrate that when hydrolysed by SEAP produces a colorimetric change allowing for detection of SEAP as the protein is secreted. […] These assays were carried out using RAW-Blue™ Cells (InvivoGen), derived from RAW 264.7 mouse leukemic monocyte macrophage cell line (ATCC, CRL 2278) stably overexpressing a NF-κB /AP-1 inducible SEAP reporter constructs.
(§3) To perform the assay, cells were seeded on 96 well microliter plates at 50,000 or 100,000 cells per well for HEK-Blue™ Cells and RAW-Blue™ Cells respectively, and cultured at 37 °C in the presence of the conjugated compounds The TLR7-TLR2 polyamine molecules were prepared as follows: First, stock solutions of the conjugated compounds of the invention were prepared in ethanol or water to a concentration of 10 mg/ml.
(§4) The working dilutions of the conjugated TLR7-TLR2 polyamine agonists made up in water or PBS were directly added to the reporter cell lines at a final concentration ranging from 10 µg/mL to 10 pg/ml and incubated at 37 °C for 24 hours. After 24 hours of incubation, the effect on reporter gene activity was determined by reading the OD at 655 nm using iMark™ Microplate Reader (BIO-RAD).

murine TLR7 = target: T2, murine TLR7 (Mus musculus, UniProt P58681); assay: HEK-Blue mTLR7 NF-κB/AP-1-inducible SEAP reporter cell assay; type: cell-based; conditions: Figure 2; 10 µg/mL to 10 pg/ml, 24 hours, SEAP read as OD at 655 nm
T2 construct: host or cells: HEK293 (ATCC, CRL-1573), HEK-Blue mTLR7
T2 sequence (P58681 27-1050): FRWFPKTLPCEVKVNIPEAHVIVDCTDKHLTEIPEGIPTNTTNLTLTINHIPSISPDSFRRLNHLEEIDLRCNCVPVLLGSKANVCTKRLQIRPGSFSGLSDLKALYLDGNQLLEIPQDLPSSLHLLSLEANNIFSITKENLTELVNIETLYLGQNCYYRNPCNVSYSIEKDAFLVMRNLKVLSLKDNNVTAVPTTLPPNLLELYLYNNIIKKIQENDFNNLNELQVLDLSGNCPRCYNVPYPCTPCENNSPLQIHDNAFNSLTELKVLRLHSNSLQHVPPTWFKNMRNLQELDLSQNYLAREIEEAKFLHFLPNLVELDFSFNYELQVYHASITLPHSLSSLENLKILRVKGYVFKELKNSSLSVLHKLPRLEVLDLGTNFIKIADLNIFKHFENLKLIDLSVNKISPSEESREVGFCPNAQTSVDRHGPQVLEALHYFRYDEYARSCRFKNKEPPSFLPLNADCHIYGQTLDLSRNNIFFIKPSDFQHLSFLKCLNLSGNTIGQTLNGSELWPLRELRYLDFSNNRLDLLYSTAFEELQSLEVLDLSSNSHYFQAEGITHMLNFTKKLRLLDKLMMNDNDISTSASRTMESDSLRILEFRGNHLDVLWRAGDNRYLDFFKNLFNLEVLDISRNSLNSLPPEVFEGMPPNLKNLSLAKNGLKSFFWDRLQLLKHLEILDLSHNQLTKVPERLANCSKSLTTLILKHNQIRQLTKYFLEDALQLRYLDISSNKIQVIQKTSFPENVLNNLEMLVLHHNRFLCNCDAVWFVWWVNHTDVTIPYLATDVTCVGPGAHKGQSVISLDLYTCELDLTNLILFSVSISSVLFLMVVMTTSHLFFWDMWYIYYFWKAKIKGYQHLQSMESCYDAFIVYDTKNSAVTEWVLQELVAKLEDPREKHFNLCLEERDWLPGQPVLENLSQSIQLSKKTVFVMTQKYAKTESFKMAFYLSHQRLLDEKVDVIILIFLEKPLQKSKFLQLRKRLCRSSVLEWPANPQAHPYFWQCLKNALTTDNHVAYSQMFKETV
Source text: as §1, §2, §3, §4

T1 sequence (O60603 21-784): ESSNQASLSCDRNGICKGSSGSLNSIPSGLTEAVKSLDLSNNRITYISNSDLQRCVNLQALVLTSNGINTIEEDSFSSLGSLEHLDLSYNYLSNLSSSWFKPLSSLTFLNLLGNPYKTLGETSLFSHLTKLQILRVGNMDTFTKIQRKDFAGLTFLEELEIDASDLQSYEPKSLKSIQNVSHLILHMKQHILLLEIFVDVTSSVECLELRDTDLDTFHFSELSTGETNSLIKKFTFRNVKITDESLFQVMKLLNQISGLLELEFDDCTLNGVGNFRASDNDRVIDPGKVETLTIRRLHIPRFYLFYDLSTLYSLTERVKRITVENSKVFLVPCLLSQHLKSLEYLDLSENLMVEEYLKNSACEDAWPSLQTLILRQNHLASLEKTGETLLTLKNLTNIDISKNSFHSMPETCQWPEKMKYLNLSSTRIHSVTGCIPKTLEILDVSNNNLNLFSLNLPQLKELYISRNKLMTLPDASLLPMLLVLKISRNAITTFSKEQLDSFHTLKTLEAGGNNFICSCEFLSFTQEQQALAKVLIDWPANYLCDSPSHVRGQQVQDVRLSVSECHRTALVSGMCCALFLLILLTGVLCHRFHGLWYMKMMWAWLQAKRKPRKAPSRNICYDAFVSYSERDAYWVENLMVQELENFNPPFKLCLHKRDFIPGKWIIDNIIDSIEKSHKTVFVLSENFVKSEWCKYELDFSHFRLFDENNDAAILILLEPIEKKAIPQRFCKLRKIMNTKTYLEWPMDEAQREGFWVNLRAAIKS

Compound	ability to activate hTLR2 (human TLR2)	ability to activate mTLR7 (murine TLR7)
CCCCCCCCCCCCCCCC(=O)OCC(CSC[C@H](N)C(=O)NCCCC[C@H](NC(=O)c1ccc(Cn2c(O)nc3c(N)nc(NCCCC)nc32)cc1)C(=O)NCCCNCCCCNCCCN)OC(=O)CCCCCCCCCCCCCCC (stereo partly drawn) [CL486, (6R,13S)-6,27-diamino-13-(4-((6-amino-2-(butylamino)-8-hydroxy-9H-purin-9-yl)methyl)benzamido)-7,14-dioxo-4-thia-8,15,19,24-tetraazaheptacosane-1,2-diyl dipalmitate]	activate hTLR2	activate mTLR7
CCCCCCCCCCCCCCCC(=O)OCC(CSC[C@H](N)C(=O)N[C@@H](COC(=O)c1ccc(Cn2c(O)nc3c(N)nc(NCCCC)nc32)cc1)C(=O)NCCCNCCCCNCCCN)OC(=O)CCCCCCCCCCCCCCC (stereo partly drawn) [CL514, (6R,9S)-6,23-diamino-9-((4-((6-amino-2-(butylamino)-8-hydroxy-9H-purin-9-yl)methyl)benzoyloxy)methyl)-7,10-dioxo-4-thia-8,11,15,20-tetraazatricosane-1,2-diyl dipalmitate]	activate hTLR2	activate mTLR7
CCCCCCCCCCCCCCCC(=O)OCC(CSC[C@H](N)C(=O)N[C@@H](CCC(=O)NCCCNCCCCNCCCN)C(=O)Nc1ccc(Cn2c(O)nc3c(N)nc(NCCCC)nc32)cc1)OC(=O)CCCCCCCCCCCCCCC (stereo partly drawn) [CL527, (6R,9S)-6,25-diamino-9-(4-((6-amino-2-(butylamino)-8-hydroxy-9H-purin-9-yl)methyl)phenylcarbamoyl)-7,12-dioxo-4-thia-8,13,17,22-tetraazapentacosane-1,2-diyl dipalmitate]	activate hTLR2	activate mTLR7
CCCCCCCCCCCCCCCC(=O)OCC(CSC[C@H](N)C(=O)NCCCNCCCCNCCCNC(=O)CNC(=O)c1ccc(Cn2c(O)nc3c(N)nc(NCCCC)nc32)cc1)OC(=O)CCCCCCCCCCCCCCC (stereo partly drawn) [CL553, (20R)-20-amino-1-(4-((6-amino-2-(butylamino)-8-hydroxy-9H-purin-9-yl)methyl)phenyl)-1,4,19-trioxo-22-thia-2,5,9,14,18-pentaazapentacosane-24,25-diyl dipalmitate]	activate hTLR2	activate mTLR7

Other lines, results leading:

ability to activate hTLR2 (human TLR2)	ability to activate mTLR7 (murine TLR7)	Compound
activate hTLR2	activate mTLR7	CCCCCCCCCCCCCCCC(=O)OCC(CSC[C@H](N)C(=O)N[C@@H](CCCCNC(=O)CNC(=O)c1ccc(Cn2c(O)nc3c(N)nc(NCCCC)nc32)cc1)C(=O)NCCCNCCCCNCCCN)OC(=O)CCCCCCCCCCCCCCC (stereo partly drawn) [CL475, (6R,9S)-6,23-diamino-9-(4-(2-(4-((6-amino-2-(butylamino)-8-hydroxy-9H-purin-9-yl)methyl)benzamido)acetamido)butyl)-7,10-dioxo-4-thia-8,11,15,20-tetraazatrico sane-1,2-diyl dipalmitate]
activate hTLR2	activate mTLR7	CCCCCCCCCCCCCCCC(=O)OCC(CSC[C@H](N)C(=O)NCCCC[C@H](NC(=O)CNC(=O)c1ccc(Cn2c(O)nc3c(N)nc(NCCCC)nc32)cc1)C(=O)NCCCNCCCCNCCCN)OC(=O)CCCCCCCCCCCCCCC (stereo partly drawn) [CL487, (6R,13S)-6,27-diamino-13-(2-(4-((6-amino-2-(butylamino)-8-hydroxy-9H-purin-9-yl)methyl)benzamido)acetamido)-7,14-dioxo-4-thia-8,15,19,24-tetraazaheptacosane-1,2-diyl dipalmitate]
